Common to all, as to experiment: kinome screen (33PanQinase)
Format in all cases: biochemical

For one experiment, the target named is T1, CDK13/CycK (Homo sapiens, UniProt Q14004).
T1 construct: purchased Reaction Biology Europe GmbH (formerly ProQinase)
The protocol:
(§1) The Kinome Screening was performed by Reaction Biology Europe GmbH (http://reactionbiology.com; Freiburg i. Br., Germany).

A further experiment has as its target T2, PDGFRβ (Homo sapiens, UniProt P09619).
T2 construct: purchased Reaction Biology Europe GmbH (formerly ProQinase)
As to the method:
as §1

The next experiment has as its target T3, CDK1/CycA2 (Homo sapiens, UniProt P06493).
T3 construct: purchased Reaction Biology Europe GmbH (formerly ProQinase)
The protocol: as §1

The target in a further experiment is T4, BMX (Homo sapiens, UniProt P51813).
T4 construct: purchased Reaction Biology Europe GmbH (formerly ProQinase)
T4 sequence (P51813 1-675): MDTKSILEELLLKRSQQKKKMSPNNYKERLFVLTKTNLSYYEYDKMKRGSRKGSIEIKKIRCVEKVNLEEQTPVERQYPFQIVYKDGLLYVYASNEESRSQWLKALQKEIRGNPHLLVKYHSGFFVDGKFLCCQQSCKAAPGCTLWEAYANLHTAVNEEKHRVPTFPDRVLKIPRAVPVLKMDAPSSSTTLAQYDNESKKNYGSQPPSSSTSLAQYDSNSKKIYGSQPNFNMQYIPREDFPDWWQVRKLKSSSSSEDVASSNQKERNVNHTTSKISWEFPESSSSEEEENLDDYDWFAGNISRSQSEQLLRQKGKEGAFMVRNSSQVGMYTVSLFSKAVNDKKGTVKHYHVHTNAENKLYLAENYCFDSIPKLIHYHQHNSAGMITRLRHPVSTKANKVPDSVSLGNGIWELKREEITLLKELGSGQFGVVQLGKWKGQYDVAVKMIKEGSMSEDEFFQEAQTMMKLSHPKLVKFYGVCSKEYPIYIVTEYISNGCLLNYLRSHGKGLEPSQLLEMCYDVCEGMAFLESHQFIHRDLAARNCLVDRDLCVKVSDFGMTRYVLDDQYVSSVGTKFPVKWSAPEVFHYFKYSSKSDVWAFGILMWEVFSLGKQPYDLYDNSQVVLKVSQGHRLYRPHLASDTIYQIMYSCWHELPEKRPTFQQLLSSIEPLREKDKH
As to the method:
as §1

For the next experiment, the target named is T5, RPS6KA4 (Homo sapiens, UniProt O75676).
T5 construct: purchased Reaction Biology Europe GmbH (formerly ProQinase)
As to the method: as §1

A further experiment deals with T6, LYN (Homo sapiens, UniProt P07948).
T6 construct: purchased Reaction Biology Europe GmbH (formerly ProQinase)
As to the method: as §1

Another experiment deals with T7, CDK19/CycC (Homo sapiens, UniProt Q9BWU1).
T7 construct: purchased Reaction Biology Europe GmbH (formerly ProQinase)
As to the method:
as §1

Another experiment has as its target T8, JAK2 (Homo sapiens, UniProt O60674).
T8 construct: purchased Reaction Biology Europe GmbH (formerly ProQinase)
The protocol:
as §1

A further experiment has as its target T9, MST3 (Homo sapiens, UniProt Q9Y6E0).
T9 construct: purchased Reaction Biology Europe GmbH (formerly ProQinase)
The protocol:
as §1

The target in a further experiment is T10, MLK4 (Homo sapiens, UniProt Q5TCX8).
T10 construct: purchased Reaction Biology Europe GmbH (formerly ProQinase)
The protocol:
as §1

Another experiment has as its target T11, RPS6KA2 (Homo sapiens, UniProt Q15349).
T11 construct: purchased Reaction Biology Europe GmbH (formerly ProQinase)
The protocol:
as §1

A further experiment addresses T12, MEKK2 (Homo sapiens, UniProt Q9Y2U5).
T12 construct: purchased Reaction Biology Europe GmbH (formerly ProQinase)
T12 sequence (Q9Y2U5 1-619): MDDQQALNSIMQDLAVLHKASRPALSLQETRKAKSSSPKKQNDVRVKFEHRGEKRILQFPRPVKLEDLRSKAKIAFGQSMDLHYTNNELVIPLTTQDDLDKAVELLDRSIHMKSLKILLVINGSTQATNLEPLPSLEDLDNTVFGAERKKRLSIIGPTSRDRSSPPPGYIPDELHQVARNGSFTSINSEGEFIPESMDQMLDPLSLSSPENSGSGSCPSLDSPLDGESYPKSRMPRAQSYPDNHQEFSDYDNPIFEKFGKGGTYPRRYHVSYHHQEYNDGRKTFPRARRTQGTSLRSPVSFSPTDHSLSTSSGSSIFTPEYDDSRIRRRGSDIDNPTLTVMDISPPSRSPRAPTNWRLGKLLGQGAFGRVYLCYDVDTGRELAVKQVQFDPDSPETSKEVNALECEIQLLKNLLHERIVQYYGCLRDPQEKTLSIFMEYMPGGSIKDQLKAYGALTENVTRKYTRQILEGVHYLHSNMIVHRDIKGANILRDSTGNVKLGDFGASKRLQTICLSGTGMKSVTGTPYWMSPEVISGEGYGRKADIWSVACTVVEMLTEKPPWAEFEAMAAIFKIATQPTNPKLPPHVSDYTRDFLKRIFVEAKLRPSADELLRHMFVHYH
As to the method:
as §1

SMILES strings stand for the structures.

T7 sequence (Q9BWU1 whole entry): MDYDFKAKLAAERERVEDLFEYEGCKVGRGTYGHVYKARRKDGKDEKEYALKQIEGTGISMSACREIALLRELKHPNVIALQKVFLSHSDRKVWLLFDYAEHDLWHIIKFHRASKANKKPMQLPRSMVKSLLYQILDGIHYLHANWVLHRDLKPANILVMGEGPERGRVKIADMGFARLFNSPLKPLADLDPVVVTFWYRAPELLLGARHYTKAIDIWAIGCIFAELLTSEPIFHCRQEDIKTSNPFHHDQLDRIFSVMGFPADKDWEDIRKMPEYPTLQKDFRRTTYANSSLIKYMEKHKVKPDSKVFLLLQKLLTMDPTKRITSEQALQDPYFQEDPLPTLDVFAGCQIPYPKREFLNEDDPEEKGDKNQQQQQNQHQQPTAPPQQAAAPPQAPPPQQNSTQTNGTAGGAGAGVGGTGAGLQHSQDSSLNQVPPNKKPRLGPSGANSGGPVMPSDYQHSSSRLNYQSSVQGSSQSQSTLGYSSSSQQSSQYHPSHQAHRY
T7 sequence (P24863 whole entry partner): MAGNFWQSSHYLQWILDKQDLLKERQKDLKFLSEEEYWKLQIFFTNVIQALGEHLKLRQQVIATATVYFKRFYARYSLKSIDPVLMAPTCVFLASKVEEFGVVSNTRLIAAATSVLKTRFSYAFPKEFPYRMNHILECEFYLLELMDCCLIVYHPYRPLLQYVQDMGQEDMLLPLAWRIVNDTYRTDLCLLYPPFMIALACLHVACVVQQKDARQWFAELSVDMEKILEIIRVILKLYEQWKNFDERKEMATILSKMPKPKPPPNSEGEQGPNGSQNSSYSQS
T3 sequence (P06493 whole entry): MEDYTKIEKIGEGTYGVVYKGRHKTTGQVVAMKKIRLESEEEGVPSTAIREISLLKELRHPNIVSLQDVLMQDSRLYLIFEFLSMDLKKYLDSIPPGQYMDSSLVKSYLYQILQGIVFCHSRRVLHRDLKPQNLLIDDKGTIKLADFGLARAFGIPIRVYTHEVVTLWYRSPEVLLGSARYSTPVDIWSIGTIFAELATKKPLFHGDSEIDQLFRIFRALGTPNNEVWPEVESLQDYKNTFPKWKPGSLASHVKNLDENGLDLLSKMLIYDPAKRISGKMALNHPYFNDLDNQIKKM
T3 sequence (P20248 whole entry partner): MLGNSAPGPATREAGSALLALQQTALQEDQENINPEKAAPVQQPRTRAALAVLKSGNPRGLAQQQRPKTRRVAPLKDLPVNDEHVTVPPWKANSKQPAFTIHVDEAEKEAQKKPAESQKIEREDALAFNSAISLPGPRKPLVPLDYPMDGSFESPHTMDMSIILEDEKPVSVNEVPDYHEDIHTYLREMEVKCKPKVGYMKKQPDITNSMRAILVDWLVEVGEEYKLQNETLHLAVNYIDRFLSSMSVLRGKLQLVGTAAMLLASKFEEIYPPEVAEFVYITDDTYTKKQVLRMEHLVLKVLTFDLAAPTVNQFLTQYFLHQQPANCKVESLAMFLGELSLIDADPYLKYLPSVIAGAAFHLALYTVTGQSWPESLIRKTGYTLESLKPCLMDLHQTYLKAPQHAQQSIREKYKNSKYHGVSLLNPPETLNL
T6 sequence (P07948 whole entry): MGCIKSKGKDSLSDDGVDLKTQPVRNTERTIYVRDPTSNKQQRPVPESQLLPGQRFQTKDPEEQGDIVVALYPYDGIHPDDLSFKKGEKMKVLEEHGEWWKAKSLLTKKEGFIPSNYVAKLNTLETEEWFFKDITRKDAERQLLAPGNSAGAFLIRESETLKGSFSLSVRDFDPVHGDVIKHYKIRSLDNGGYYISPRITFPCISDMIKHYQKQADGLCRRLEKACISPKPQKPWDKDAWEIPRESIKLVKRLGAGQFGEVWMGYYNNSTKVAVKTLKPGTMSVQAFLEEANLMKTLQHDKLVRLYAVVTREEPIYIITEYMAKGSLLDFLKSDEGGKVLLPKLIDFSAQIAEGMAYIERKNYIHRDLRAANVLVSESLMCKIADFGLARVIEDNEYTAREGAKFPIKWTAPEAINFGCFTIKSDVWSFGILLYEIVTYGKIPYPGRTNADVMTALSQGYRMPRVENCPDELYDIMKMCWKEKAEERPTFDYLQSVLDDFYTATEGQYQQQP
T9 sequence (Q9Y6E0 whole entry): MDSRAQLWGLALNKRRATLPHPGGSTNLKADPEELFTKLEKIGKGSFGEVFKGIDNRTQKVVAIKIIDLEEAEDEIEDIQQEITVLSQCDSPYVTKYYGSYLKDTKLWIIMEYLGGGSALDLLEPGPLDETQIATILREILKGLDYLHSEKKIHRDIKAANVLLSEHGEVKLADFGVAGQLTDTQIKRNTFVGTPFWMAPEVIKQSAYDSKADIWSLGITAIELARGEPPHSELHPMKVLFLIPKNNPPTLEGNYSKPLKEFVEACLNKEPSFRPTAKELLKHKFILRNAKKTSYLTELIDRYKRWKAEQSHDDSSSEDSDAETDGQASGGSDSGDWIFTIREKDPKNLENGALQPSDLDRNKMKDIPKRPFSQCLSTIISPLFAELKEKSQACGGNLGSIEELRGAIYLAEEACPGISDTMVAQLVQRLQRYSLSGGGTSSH
T8 sequence (O60674 whole entry): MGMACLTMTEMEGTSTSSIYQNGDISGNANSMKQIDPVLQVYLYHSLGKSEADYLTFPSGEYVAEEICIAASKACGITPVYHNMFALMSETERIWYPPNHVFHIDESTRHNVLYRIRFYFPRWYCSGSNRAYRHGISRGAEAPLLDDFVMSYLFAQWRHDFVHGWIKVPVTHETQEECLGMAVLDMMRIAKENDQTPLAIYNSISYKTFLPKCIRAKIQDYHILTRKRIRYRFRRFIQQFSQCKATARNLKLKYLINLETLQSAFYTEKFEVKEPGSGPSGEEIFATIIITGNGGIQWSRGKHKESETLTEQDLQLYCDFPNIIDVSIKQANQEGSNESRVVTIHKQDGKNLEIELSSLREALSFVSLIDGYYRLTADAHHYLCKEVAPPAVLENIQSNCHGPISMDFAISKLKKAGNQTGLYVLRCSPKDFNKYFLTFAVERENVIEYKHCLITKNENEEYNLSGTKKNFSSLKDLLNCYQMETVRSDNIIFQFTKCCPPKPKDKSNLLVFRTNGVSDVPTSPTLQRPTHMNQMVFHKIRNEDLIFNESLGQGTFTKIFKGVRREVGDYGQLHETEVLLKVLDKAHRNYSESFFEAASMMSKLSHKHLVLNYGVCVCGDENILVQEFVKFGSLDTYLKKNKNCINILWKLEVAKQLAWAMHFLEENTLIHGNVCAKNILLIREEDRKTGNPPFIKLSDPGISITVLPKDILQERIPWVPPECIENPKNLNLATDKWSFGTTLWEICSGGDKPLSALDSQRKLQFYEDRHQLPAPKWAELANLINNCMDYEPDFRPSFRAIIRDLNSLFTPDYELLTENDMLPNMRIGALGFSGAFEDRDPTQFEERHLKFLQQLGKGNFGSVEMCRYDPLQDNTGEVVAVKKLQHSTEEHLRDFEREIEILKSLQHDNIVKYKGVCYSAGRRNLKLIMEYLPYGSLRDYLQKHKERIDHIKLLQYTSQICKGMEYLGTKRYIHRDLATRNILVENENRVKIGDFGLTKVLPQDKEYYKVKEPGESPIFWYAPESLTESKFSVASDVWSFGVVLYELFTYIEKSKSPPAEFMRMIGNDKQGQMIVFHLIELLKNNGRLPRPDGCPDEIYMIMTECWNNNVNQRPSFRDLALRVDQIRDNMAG
T5 sequence (O75676 whole entry): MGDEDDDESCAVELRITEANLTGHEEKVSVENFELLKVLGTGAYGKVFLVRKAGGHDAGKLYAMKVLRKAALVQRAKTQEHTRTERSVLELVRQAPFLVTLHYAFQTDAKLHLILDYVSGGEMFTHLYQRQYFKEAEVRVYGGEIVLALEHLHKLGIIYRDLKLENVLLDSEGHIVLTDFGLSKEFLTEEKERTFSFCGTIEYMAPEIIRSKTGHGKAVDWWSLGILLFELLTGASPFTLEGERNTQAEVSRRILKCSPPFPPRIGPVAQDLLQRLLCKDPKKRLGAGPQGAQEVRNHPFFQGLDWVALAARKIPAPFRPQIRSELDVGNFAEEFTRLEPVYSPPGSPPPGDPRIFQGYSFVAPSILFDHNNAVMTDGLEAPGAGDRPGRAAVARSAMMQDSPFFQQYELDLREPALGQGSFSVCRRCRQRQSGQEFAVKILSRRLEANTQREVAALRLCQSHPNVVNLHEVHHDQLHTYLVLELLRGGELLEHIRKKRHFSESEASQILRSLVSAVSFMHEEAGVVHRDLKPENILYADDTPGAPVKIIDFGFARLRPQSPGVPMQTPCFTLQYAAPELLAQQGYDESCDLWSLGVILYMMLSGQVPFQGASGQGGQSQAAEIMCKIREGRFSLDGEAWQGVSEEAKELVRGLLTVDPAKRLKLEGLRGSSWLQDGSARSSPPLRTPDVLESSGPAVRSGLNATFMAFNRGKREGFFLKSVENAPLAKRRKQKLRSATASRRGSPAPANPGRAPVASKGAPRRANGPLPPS

`COc1ccnc2[nH]cc(-c3cc(N)nc(N)c3)c12` [meriolin 16]: the residual kinase activity is 31 % of control on CDK13/CycK (0.03 µM); 5 % of control at CDK13/CycK (0.3 µM); 93 % of control on PDGFRβ (0.03 µM); 75 % of control at PDGFRβ (0.3 µM); 32 % of control on CDK1/CycA2 (0.03 µM); 5 % of control at CDK1/CycA2 (0.3 µM). Besides, the residual kinase activity on BMX (0.03 µM) is listed as 118 % of control; on BMX (0.3 µM), 103 % of control; at RPS6KA4 (0.03 µM), 90 % of control; at RPS6KA4 (0.3 µM), 89 % of control; on LYN (0.03 µM) it was 105 % of control; at LYN (0.3 µM), 81 % of control. Besides, the residual kinase activity on CDK19/CycC (0.03 µM) was 6 % of control; at CDK19/CycC (0.3 µM), 2 % of control; on JAK2 (0.03 µM) it was 102 % of control; at JAK2 (0.3 µM), 80 % of control; on MST3 (0.03 µM), 101 % of control; at MST3 (0.3 µM) it was 91 % of control. Further, the residual kinase activity on MLK4 (0.03 µM) is 105 % of control; at MLK4 (0.3 µM), 75 % of control; on RPS6KA2 (0.03 µM) it was 87 % of control; at RPS6KA2 (0.3 µM), 34 % of control; on MEKK2 (0.03 µM), 95 % of control; at MEKK2 (0.3 µM), 91 % of control.
On to `c1ccc(CNc2cc(-c3c[nH]c4ncccc34)ccn2)cc1` [meriolin 36], for which the residual kinase activity on CDK13/CycK (0.3 µM) is listed as 12 % of control; on CDK13/CycK (3 µM) it was -10 % of control; at PDGFRβ (0.3 µM) it was 24 % of control; at PDGFRβ (3 µM), 4 % of control; at CDK1/CycA2 (0.3 µM), 2 % of control; at CDK1/CycA2 (3 µM), 1 % of control. Moreover, the residual kinase activity on BMX (0.3 µM) is 109 % of control; on BMX (3 µM), 49 % of control; on RPS6KA4 (0.3 µM), 71 % of control; at RPS6KA4 (3 µM), 29 % of control; on LYN (0.3 µM), 73 % of control; on LYN (3 µM), 25 % of control. The residual kinase activity at CDK19/CycC (0.3 µM) is listed as 3 % of control; at CDK19/CycC (3 µM), 0 % of control; at JAK2 (0.3 µM) it was 40 % of control; on JAK2 (3 µM) it was 8 % of control; on MST3 (0.3 µM), 71 % of control; on MST3 (3 µM), 32 % of control. Besides, the residual kinase activity on MLK4 (0.3 µM) is given as 73 % of control; at MLK4 (3 µM) it was 40 % of control; at RPS6KA2 (0.3 µM), 6 % of control; on RPS6KA2 (3 µM), 0 % of control; at MEKK2 (0.3 µM), 66 % of control; on MEKK2 (3 µM) it was 18 % of control.

The record behind these values is article PMC11167047 (Cell Death Discovery, 2024).
